Tested on: galK 1 site
Assay: red/white colony screen of editing efficiency at the galK 1 site (CREATE recombineering)
Type: cell-based, E. coli MG1655
Details: for Editing Efficiency 1 mM Theo: induced for 3 hours with 1 mM theophylline; for Editing Efficiency no Theo: no theophylline, 3 hours recovery
Procedure: Candidates from this enriched library were analyzed to inform an improved library design. After three selection/counterselection steps, cells were plated on M63 selection medium^20 and 150 colonies were picked. Each isolated candidate was then transformed into unedited E. coli to screen for theophylline-responsive constructs using a red/white colony assay to quantify the percentage of edited bacteria. Colonies with an unedited galK site appear red whereas edited colonies appear white (FIG. 5). The percentage of white colonies is considered the editing efficiency. Gene editing was induced as previously described with or without adding theophylline and the editing efficiencies were compared.
The protocol established by Garst et al was mainly followed. LB containing kanamycin and chloramphenicol was inoculated with MGλ9 cells and grown overnight at 30° C. The stationary culture was diluted 100 fold in LB, containing chloramphenicol, kanamycin and 0.2% arabinose and grown to an OD600=0.4-0.6 in 25 mL LB. The culture was heat-shocked in a shaking waterbath at 42° C. for 15 minutes to induce expression of the lambda-red proteins from pSIM5. Then, the culture was washed in two volumes of ice-cold deionized water, resuspended in 500 μl deionized water and 50 μl of the cell suspension was electroporated with 200 ng of a CREATE plasmid that encodes gRNA and homology template. The transformants were recovered in 4 mL of LB, containing 0.2% arabinose and optionally 1 mM theophylline or 1 μM anhydrotetracycline (ATC), and shaken at 37° C. for 3 hours before plating on MacConkey Agar. To estimate the number of cfu, aliquots were plated on LB agar 1 hour after transformation.
In order to assess the frequency of gene editing, a red/white screen was used to visualize the introduction of a stop codon into the galK gene by CREATE. The original CREATE protocol was used for inducing gene editing and after 3 hours of recovery (with or without the agRNA ligand) a series of dilutions of the cultures were plated on MacConkey Agar plates containing 1% galactose. Bacterial colonies with a mutated galK* site appear white on the plates, whereas non-edited colonies appear red. The editing efficiency could be calculated by dividing the number of edited colonies over the total number of colonies. By comparing the editing efficiency in presence versus absence of the ligand, a dynamic range of the in vivo activity could be determined.
When screening the enriched libraries for switchable constructs, the transformants were recovered in 4 mL of LB broth, a dilution series was plated for every construct and the experiment was only carried out once due to the large volume of colonies screened (˜250 in total). When the constructs A9 and GU19 were characterized in detail, triplica of the experiment were carried out.

Substance	Editing Efficiency 1 mM Theo [%]	Editing Efficiency no Theo [%]
AU9: agRNA cassette AAACGGCCCACTGT, SEQ ID NO: 23 (expressed or natural sequence)	22	1
AU7: agRNA cassette AGTAGGCCTTTCAT, SEQ ID NO: 21 (expressed or natural sequence)	58	0
GC10: agRNA cassette GAGCGGCCACAACC, SEQ ID NO: 61 (expressed or natural sequence)	0	0
AU11: agRNA cassette AATAGGCCACTTAT, SEQ ID NO: 25 (expressed or natural sequence)	25	0
GC7: agRNA cassette GGGGGGCCGAATAC, SEQ ID NO: 58 (expressed or natural sequence)	71	1
GU13: agRNA cassette GGCCGGCCAAGCAT, SEQ ID NO: 45 (expressed or natural sequence)	6	0
GU5: agRNA cassette GGTTGGCCTAATAT, SEQ ID NO: 38 (expressed or natural sequence)	2	0
A14: agRNA cassette GGAGGTACGGTGCC, SEQ ID NO: 10 (expressed or natural sequence)	87	2
A26: agRNA cassette GGGGGGCCACGCGC, SEQ ID NO: 13 (expressed or natural sequence)	89	5
GC13: agRNA cassette GGAAGGCCTTATAC, SEQ ID NO: 64 (expressed or natural sequence)	64	0
GC16: agRNA cassette GATAGGCCAACACC, SEQ ID NO: 66 (expressed or natural sequence)	65	1
AU16: agRNA cassette AACCGGCCCCGAGT, SEQ ID NO: 29 (expressed or natural sequence)	6	0
AU17: agRNA cassette AAAGGGCCAGGCAT, SEQ ID NO: 30 (expressed or natural sequence)	4	0
GU8: agRNA cassette GGCAGGCCTCTTCT, SEQ ID NO: 40 (expressed or natural sequence)	1	0
AU4: agRNA cassette AACAGGCCTTAATT, SEQ ID NO: 18 (expressed or natural sequence)	0	0
GC8: agRNA cassette GGACGGCCCTGTGC, SEQ ID NO: 59 (expressed or natural sequence)	0	1
AU6: agRNA cassette AAGGGGCCTATAAT, SEQ ID NO: 20 (expressed or natural sequence)	77	5

Substance	Editing Efficiency 1 mM Theo [%]	Editing Efficiency no Theo [%]
GC12: agRNA cassette GATAGGCCAGTTAC, SEQ ID NO: 63 (expressed or natural sequence)	36	1
GU1: agRNA cassette GACGGGCCTAATAT, SEQ ID NO: 34 (expressed or natural sequence)	0	0
C2A2: agRNA cassette TAGTGGCTACCATG, SEQ ID NO: 14 (expressed or natural sequence)	84	5
GC1: agRNA cassette GCTGGGCCCTTCCC, SEQ ID NO: 52 (expressed or natural sequence)	0	0
GC15: agRNA cassette GCATGGCCTACTCC, SEQ ID NO: 65 (expressed or natural sequence)	21	1
AU2: agRNA cassette ACCAGGCCAAGTAT, SEQ ID NO: 16 (expressed or natural sequence)	4	0
G1B1: agRNA, 2×4 IL and upper stem cassette GTATCGCTTAAGCC, SEQ ID NO: 2 (expressed or natural sequence)	59	1
AU18: agRNA cassette AATAGGCCCAGACT, SEQ ID NO: 31 (expressed or natural sequence)	7	0
AU10: agRNA cassette ATAGGGCCATCCAT, SEQ ID NO: 24 (expressed or natural sequence)	13	0
GC17: agRNA cassette GACCGGCCCCCCGC, SEQ ID NO: 67 (expressed or natural sequence)	2	0
AU12: agRNA cassette AGAGGGCCGGGCGT, SEQ ID NO: 26 (expressed or natural sequence)	26	0
GU2: agRNA cassette GCGAGGCCTACTAT, SEQ ID NO: 35 (expressed or natural sequence)	0	0
A8: agRNA cassette CGGGGGACAATAGG, SEQ ID NO: 12 (expressed or natural sequence)	82	2
A34: agRNA cassette TAGTTTAAACCGTT, SEQ ID NO: 7 (expressed or natural sequence)	57	12
GC20: agRNA cassette GCAAGGCCAACACC, SEQ ID NO: 69 (expressed or natural sequence)	64	0
GC18: agRNA cassette GATTGGCCGCAACC, SEQ ID NO: 68 (expressed or natural sequence)	48	0

— patent publication US12416008B2, “Compositions and methods of use for small-molecule regulation of CRISPR-Cas9 activity using RNA aptamers” (priority 2019, dated 2025)
